Measured values: patent publication US20190175783A1, “High-Throughput Method for Detecting Tooth Stain Prevention and Removal” (Johnson & Johnson Consumer Inc., priority 2017, published 2019)

Legend:
[1] = Stain removal test (450 nm absorbance of stain removed)
Experimental: • 1. Form a pellicle coat on hydroxyapatite (HAp) particles by mixing the particles with saliva and incubating the mixture. • 2. Transfer HAp particle/saliva suspension into a large batch filter container. • 3. Filter the saliva supernatant to waste. • 4. Stain particles by adding a stain solution directly to the filter container and incubate. • 5. Transfer stained, pellicle coated HAp particle suspension into filter container. • 6. Filter the stained, pellicle coated HAp particles, sending the supernatant to waste. • 7. Re-suspend stained, pellicle coated HAp particles in water, and optionally store for future testing. • 8. Prepare stained, pellicle coated HAp particles for treatment. • 9. Treat stained HAp particles. • 10. Filter and collect the supernatant. • 11. Make UV-Vis absorbance measurements on collected supernatant.
A mass of one gram of hydroxyapatite powder (Bio-Rad, Hercules, Calif., catalogue 1570020) was suspended in artificial saliva (Northeast Laboratories, Winslow, Me., catalogue no. T0300) at a concentration of 10 milligram/100 microliter and allowed to incubate for 15 minutes at 37° C. to form a pellicle coating. The supernatant was filtered out from the particles. The particles were re-suspended in 10% instant coffee stain solution at a concentration of 10 milligram/100 microliter and incubated at 37° C. for 30 minutes. The coffee solution was removed by filtration and the particles were washed of any loosely bound stain. The now coffee stained, pellicle coated hydroxyapatite particles were suspended in water at a concentration of 10 milligram/100 microliter. A volume of 100 microliter per sample was aliquoted into respective filter vesicle (96-well filter plate or filter tube) and the supernatant was filtered out from the particles (n=3 per sample). The treatment solutions were prepared within a range of 0% to 2% polyphosphate solution in water. The stock 2% w/v solution was serial diluted 1:1 in water to achieve treatment concentrations of polyphosphates of 1%, 0.5%, 0.25%, 0.125%, 0.0625%, and 0.03125% w/v. The 0% solution was a water control. After, the stained hydroxyapatite particles were exposed to 200 microliter of respective treatment for 1 or 2 minutes at room temperature with agitation (120 rpm). The polyphosphate treatment solutions ranged from 0.031% to 2% w/v. A negative control, using distilled water as the treatment solution, was tested as a comparison to the polyphosphate treatment solutions. […] Subsequently, absorbance measurements (Tecan, Infinite M200 Pro) were made between 230 and 1000 nm with a 10 nm step increase between measurements. The absorbance at 450 nm was used as a measure of stain removed, where higher absorbance values indicated more stain displaced from the hydroxyapatite particles.

[2] = Stain prevention test (450 nm absorbance of stain displaced after pre-treatment)
Experimental: Stain Prevention Test Procedure: • 1. Form a pellicle coat on hydroxyapatite (HAp) particles by mixing the particles with saliva and incubating the mixture. • 2. Transfer HAp particle/saliva suspension into a large batch filter container. • 3. Filter the saliva supernatant to waste. • 4. Treat pellicle coated HAp particles, sending the supernatant to waste. • 5. Filter the treated, pellicle coated HAp particles, sending the supernatant to waste. • 6. Stain the pre-treated pellicle coated HAp particles by adding a stain solution directly to the filter container and incubate. • 7. Wash any loosely bound stain off the pre-treated, pellicle coated HAp particles. • 8. Elute the stain from the stained, pre-treated, pellicle coated HAp particles 5% PPi solution. • 9. Filter and collect supernatant. • 10. Make UV-Vis absorbance measurements on collected supernatant.
A mass of 1 gram of hydroxyapatite particles (Bio-Rad, Hercules, Calif., catalogue 1570020) was suspended in artificial saliva at a concentration of 10 milligram/100 microliter and allowed to incubate for 15 minutes at 37° C. to form a pellicle coating. A volume of 100 microliter per sample was aliquoted into respective filter vesicle (96-well filter plate or filter tube) and the supernatant was filtered out from the particles (n=3 per sample treatment). The treatment solutions were prepared within a range of 0% to 2% polyphosphate solution in water. The stock 2% w/v solution was serial diluted 1:1 in water to achieve treatment concentrations of polyphosphates of 1%, 0.5%, 0.25%, 0.125%, 0.0625%, and 0.03125% w/v. The 0% solution was a water control. The pellicle coated hydroxyapatite particles were exposed to 200 microliter of treatment solution of polyphosphate for at least 1 minute at room temperature with agitation (120 rpm). The treatment was removed by filtration and the particles were exposed to 100 microliter of a 10% instant coffee stain solution and incubated at 37° C. for 30 minutes. The coffee was removed by filtration and the particles were washed of any loosely bound stain. The residual stain on the particles was displaced with 200 microliter of an alkaline 5% pyrophosphate solution by incubating at room temperature for 10 minutes. The displaced stain was collected in a 96-well plate and absorbance measurements were made (Tecan, Infinite M200 Pro) between 230 and 1000 nm with a 10 nm step increase between measurements. The absorbance at 450 nm was used as a measure of stain prevention, with the lower absorbance values indicating more stain prevented from attaching to hydroxyapatite particle.

[3] = concentration from 0.500% to 2.00%
[4] = concentration increased from 0.031% to 0.500%

Substance: polyphosphate [polyphosphate solutions]
- stain removal, effect of treatment time ([1]; 1 versus 2 minute treatments): no significant difference
- level of stain removal (450 nm absorbance) [1, 3]: remained constant
- stain removal (450 nm absorbance) [1, 4]: stain removal increased
- 450 nm absorbance values of stain removed as a function of concentration ([1]; polyphosphate 0.031% to 2% w/v in water, 1- and 2-minute treatments, 10% instant coffee stain, FIG. 1): clear dose response
- stain prevention, effect of pre-treatment time ([2]; 1-, 2- and 10-minute stain prevention pre-treatments): no significant difference
- level of stain removal (450 nm absorbance of displaced stain) [2, 3]: remained constant
- stain prevention (450 nm absorbance) [2, 4]: stain prevention increased
- 450 nm absorbance values of stain displaced as a function of concentration ([2]; polyphosphate 0.031% to 2% w/v in water, 1-, 2- and 10-minute pre-treatments, 10% instant coffee stain, FIG. 2): clear dose response
